One data set has as its target T1, CYP2D6 (Homo sapiens, UniProt P10635).
T1 construct: purchased BD Biosciences
Briefly: CYP inhibition fluorescence assay, CYP2D6. It is filed as in vitro ADME. The settings on record: substrate AMMC; read-out: Cyp IC50 2D6. On the procedure: (§1) CYP (Cytochrome P450) enzymes are the major drug metabolizing enzymes present in the liver. The inhibition of CYP enzyme activity (IC50) for each of CYP1A2, CYP2C19, CYP2C9, CYP2D6, CYP3A4(BFC) and CYP3A4(BQ) is determined for compounds, where inhibition of metabolism of a known substrate leads to a decrease in the fluorescence of the metabolized product. The fluorescence of the product is monitored as a function of compound concentration. Compounds are dissolved in dimethyl sulfoxide to a concentration of 100 mM. These are diluted 1 μL into 82 μL of acetonitrile. An 11 μL aliquot of this solution is then added to 204 μL of cofactor mix (1.3% NADPH Regeneration system Solution A, 1.04% NADPH Regeneration system Solution B from BD Biosciences, 5% acetonitrile and 0.05% dimethyl sulfoxide). These are then serially diluted 160 μL to 160 μL co-factor mix for a total of 10 points. A 10 μL aliquot of this final mixture is dispensed into 384 well assay plates and incubated for 10 minutes at 37° C. Enzyme and substrate mix (10 μL; 0.5 pmol CYP1A2/5 μM CEC; 1.0 pmol CYP2C9/75 μM MFC; 0.5 pmol CYP2C19/25 μM CEC; 1.5 pmol CYP2D6/1.5 μM AMMC; 1.0 pmol CYP3A4/50 μM BFC; or 1.0 pmol CYP3A4/40 μM BQ) is added to these assay plates. […] (CYP1A2-15 min; CYP2C9-45 min; CYP2C19, 2D6 and 3A4-30 min) and read in a Tecan Safire 2 plate reader (CYP1A2, 2C19 and 3A4 409 ex/460 em; CYP2C9 and 2D6 409 ex/530 em). […]

The next data set deals with Src (Homo sapiens, UniProt P12931). Briefly: Kinase biochemical assay, Src.
For a further data set, the target named is TrkA (Homo sapiens, UniProt P04629). Briefly: Kinase biochemical assay, TrkA.
A further data set concerns the target T2, B-Raf (Homo sapiens, UniProt P15056).
T2 construct: purchased Upstate Biotechnology
Briefly: Raf kinase biochemical assay (biotin-MEK1 phosphorylation, AlphaScreen), B-Raf. The settings on record: 100 μM ATP, biotin-MEK1 substrate. On the procedure: (§2) Assays for biochemical and cell based activity are known in the art, for example, as described in PCT publication WO 2007/002433, the disclosure of which is hereby incorporated by reference as it relates to such assays. For example, the biochemical activity IC50 values are determined with respect to inhibition of B-Raf kinase activity, c-Raf-1 kinase activity, or B-Raf V600E kinase activity, where inhibition of phosphorylation of a peptide substrate is measured as a function of compound concentration. Compounds to be tested are diluted in dimethyl sulfoxide to a concentration of 0.1 mM. These are serially diluted 15 μL into 30 μL of dimethyl sulfoxide seven times in 96 well plates for a total of 8 dilution points, and for each dilution point 1 μL is added to a well of an assay plate. Plates are prepared such that each well in a 384 well plate contains 1 μL of compound in 10 μL volume with 0.1 ng Raf enzyme (i.e. any of B-Raf, c-Raf-1 or B-Raf V600E, Upstate Biotechnology or prepared by methods known to one of skill in the art), 50 mM HEPES, pH 7.0, 50 mM NaCl, 2 mM MgCl2, 1 mM MnCl2, 0.01% Tween-20, 1 mM DTT, and 100 nM biotin-MEK1 as substrate. The reaction is started with addition of 10 μL of 200 μM ATP (i.e. final 100 μM ATP). […] The plates are incubated for 3 hours at room temperature and read on Envision reader (Perkin Elmer). […]
(Alpha assays give light when donor and acceptor beads are brought close together.)

In a further data set the target is Hgk (Homo sapiens, UniProt O95819). Briefly: Kinase biochemical assay, Hgk.
The target in another data set is T3, CYP2C19 (Homo sapiens, UniProt P33261).
T3 construct: purchased BD Biosciences
Briefly: CYP inhibition fluorescence assay, CYP2C19. The class given is in vitro ADME. The settings on record: substrate CEC; read-out: Cyp IC50 2C19. On the procedure:
as §1

The next data set addresses T4, CYP2C9 (Homo sapiens, UniProt P11712).
T4 construct: purchased BD Biosciences
Briefly: CYP inhibition fluorescence assay, CYP2C9. It is filed as in vitro ADME. The settings on record: substrate MFC; read-out: Cyp IC50 2C9. The procedure:
as §1

The next data set has as its target T5, c-Raf-1 (Homo sapiens, UniProt P04049).
T5 construct: purchased Upstate Biotechnology
Briefly: Raf kinase biochemical assay (biotin-MEK1 phosphorylation, AlphaScreen), c-Raf-1. The settings on record: 100 μM ATP, biotin-MEK1 substrate. On the procedure: as §2

The next data set has as its target Kdr (Homo sapiens, UniProt P35968). Briefly: Kinase biochemical assay, Kdr.
A further data set concerns the target Btk (Homo sapiens, UniProt Q06187). Briefly: Kinase biochemical assay, Btk.
The nature of data set [1]: Turbidity assay of relative solubility in aqueous buffers of varying pH. It is filed as physicochemical. On the procedure:
As an indication of relative solubility, the turbidity of compounds in aqueous solutions is assessed. To assess possible compound properties in different physiological compartments, such as stomach, intestine, and blood, a series of aqueous buffers with varying pH is used. Thus each compound is diluted into four different physiologically relevant buffers and solution turbidity is measured by spectrophotometry.
Compounds are dissolved at a concentration of 25 mM in dimethyl sulfoxide, then serially diluted 1:1 into a 96 well plate, diluting 10 times in pure dimethyl sulfoxide, with the final well of each row a dimethyl sulfoxide blank. In an assay plate, 99 μL of appropriate buffer is added to each well, and 1 μL of each sample dilution is added to the buffer, achieving a range of final total concentrations in aqueous solutions having different pH. […] Control compounds pyrene, estriol and propranolol HCl are also assessed. Plates are spun and then mixed for 1 minute, and the absorbance is read using a Tecan Safire II to read wavelengths in the visible range (490, 535, and 650 nm) at four locations per well, reflecting the degree of turbidity present. The average optical density for each wavelength in each well is graphed vs. compound concentration, and the concentration at which the curve crosses a threshold O.D. of 0.01 for each wavelength is reported as the endpoint turbidity assay result. The average of the three wavelengths is used to compare turbidity of compounds. Compounds are considered to have low solubility if the threshold concentration is <31.3 μM, moderate solubility if the threshold concentration is 31.3 μM to 250 μM, and high solubility if the threshold concentration is >250 μM.

Data set [2] in a line: pKa of weakly basic and weakly acidic centers. It is filed as physicochemical. The settings on record: approximate.
Another data set addresses Kit (Homo sapiens, UniProt P10721). Briefly: Kinase biochemical assay, Kit.
The target of the next data set is T6, CYP1A2 (Homo sapiens, UniProt P05177).
T6 construct: purchased BD Biosciences
T6 sequence (P05177 1-516): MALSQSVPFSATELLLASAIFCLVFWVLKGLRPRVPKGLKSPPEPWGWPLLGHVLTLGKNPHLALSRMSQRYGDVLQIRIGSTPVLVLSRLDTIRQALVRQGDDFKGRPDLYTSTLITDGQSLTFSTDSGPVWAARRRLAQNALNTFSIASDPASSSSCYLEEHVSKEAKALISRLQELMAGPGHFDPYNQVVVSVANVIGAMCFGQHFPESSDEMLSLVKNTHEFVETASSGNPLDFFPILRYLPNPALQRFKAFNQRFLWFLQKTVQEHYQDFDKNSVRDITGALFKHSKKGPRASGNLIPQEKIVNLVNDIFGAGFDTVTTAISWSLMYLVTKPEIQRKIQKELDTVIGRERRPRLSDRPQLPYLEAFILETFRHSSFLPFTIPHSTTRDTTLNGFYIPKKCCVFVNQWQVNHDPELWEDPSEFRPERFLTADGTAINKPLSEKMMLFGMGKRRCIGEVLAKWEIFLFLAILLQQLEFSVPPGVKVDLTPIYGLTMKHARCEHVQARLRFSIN
Briefly: CYP inhibition fluorescence assay, CYP1A2. It is filed as in vitro ADME. The settings on record: substrate CEC; read-out: Cyp IC50 1A2. On the procedure: as §1

Another data set addresses T7, B-Raf mutant V600E (Homo sapiens, UniProt P15056, V600E).
T7 construct: purchased Upstate Biotechnology
Briefly: Raf kinase biochemical assay (biotin-MEK1 phosphorylation, AlphaScreen), B-Raf V600E. The settings on record: 100 μM ATP, biotin-MEK1 substrate. On the procedure: as §2

A further data set concerns the target Fms (Homo sapiens, UniProt P07333). Briefly: Kinase biochemical assay, Fms.
The target in the next data set is T8, CYP3A4(BFC) (Homo sapiens, UniProt P08684).
T8 construct: purchased BD Biosciences
Briefly: CYP inhibition fluorescence assay, CYP3A4 with BFC substrate. The settings on record: read-out: Cyp IC50 3A4(BFC). It is filed as in vitro ADME. The procedure:
as §1

A further data set concerns the target T9, CYP3A4(BQ) (Homo sapiens, UniProt P08684).
T9 construct: purchased BD Biosciences
Briefly: CYP inhibition fluorescence assay, CYP3A4 with BQ substrate. The class given is in vitro ADME. The settings on record: read-out: Cyp IC50 3A4(BQ). On the procedure:
as §1

[3] abbreviates: pH 1.4 (Simulated Gastric Fluid).
The mark [4] stands for this setting: pH 4.5 (Simulated Intestinal fluid).
[5] abbreviates: pH 6.8 (Simulated Intestinal fluid).
Setting [6] is: read-out: pKa of N-7 of the pyrrolo[2,3-b]pyridine portion (weakly basic).
Setting [7] is: read-out: pKa of the sulfonamide nitrogen (weakly acidic).

Read-outs that look alike come from different tables or passages of the source.

T1 sequence (P10635 whole entry): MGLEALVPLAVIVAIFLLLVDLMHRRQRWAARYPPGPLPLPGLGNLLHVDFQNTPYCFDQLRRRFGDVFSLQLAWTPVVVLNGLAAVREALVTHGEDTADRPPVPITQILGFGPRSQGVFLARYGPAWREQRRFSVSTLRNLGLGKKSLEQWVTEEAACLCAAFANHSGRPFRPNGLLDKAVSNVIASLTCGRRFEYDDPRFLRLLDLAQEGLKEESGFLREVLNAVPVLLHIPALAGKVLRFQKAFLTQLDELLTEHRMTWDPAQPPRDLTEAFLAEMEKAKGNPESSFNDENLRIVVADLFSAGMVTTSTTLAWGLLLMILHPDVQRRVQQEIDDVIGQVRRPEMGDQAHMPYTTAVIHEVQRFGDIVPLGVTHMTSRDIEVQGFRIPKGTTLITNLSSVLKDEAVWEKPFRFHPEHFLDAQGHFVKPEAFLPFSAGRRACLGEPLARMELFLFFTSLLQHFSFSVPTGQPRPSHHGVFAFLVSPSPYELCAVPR
Sequence of TrkA (P04629 33-796, species assumed): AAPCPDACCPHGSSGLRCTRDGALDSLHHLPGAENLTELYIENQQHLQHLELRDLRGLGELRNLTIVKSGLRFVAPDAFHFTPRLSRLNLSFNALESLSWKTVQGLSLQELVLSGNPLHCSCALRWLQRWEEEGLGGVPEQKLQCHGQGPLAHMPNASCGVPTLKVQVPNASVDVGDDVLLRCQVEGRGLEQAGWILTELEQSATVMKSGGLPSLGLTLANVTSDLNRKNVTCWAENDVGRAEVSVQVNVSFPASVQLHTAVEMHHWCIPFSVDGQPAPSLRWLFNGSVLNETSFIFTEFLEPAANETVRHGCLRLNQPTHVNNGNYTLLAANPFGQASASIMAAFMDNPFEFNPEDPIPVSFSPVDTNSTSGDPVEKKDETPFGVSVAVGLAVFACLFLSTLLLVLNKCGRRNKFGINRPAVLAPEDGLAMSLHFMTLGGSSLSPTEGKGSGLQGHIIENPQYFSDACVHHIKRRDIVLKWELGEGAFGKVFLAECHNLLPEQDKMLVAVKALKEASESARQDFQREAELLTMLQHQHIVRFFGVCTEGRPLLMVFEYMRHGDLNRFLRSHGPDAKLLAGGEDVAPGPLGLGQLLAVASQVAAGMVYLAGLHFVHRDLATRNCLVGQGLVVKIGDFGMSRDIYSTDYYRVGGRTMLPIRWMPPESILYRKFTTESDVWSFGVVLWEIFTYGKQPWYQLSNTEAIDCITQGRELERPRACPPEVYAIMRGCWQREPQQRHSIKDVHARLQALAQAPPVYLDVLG
Sequence of Fms (P07333 20-972, species assumed): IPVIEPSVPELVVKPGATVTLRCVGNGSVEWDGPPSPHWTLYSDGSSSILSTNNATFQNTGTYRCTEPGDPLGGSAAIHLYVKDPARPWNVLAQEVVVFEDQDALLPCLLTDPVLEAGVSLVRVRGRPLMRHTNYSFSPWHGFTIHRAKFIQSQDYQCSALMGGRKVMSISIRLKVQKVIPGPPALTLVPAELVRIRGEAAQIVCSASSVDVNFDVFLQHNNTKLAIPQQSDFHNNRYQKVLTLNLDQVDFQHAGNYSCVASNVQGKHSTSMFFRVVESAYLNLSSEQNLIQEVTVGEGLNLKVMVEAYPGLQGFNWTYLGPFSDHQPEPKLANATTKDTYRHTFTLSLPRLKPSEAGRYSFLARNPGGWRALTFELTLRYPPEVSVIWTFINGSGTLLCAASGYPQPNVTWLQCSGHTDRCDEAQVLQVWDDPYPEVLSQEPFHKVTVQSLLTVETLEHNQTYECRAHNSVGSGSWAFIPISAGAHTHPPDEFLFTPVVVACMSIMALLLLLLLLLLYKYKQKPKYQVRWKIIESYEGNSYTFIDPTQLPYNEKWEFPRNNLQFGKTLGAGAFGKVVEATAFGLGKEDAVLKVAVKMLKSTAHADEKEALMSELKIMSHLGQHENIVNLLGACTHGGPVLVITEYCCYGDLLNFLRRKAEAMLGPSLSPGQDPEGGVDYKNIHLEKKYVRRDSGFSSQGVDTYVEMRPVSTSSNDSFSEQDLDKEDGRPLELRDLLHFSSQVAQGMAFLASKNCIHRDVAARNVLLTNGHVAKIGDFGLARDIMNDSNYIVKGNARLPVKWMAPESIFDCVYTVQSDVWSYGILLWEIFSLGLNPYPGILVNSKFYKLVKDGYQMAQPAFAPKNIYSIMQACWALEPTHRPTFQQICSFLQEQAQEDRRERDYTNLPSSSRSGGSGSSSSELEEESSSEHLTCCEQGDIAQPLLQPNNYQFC
T3 sequence (P33261 whole entry): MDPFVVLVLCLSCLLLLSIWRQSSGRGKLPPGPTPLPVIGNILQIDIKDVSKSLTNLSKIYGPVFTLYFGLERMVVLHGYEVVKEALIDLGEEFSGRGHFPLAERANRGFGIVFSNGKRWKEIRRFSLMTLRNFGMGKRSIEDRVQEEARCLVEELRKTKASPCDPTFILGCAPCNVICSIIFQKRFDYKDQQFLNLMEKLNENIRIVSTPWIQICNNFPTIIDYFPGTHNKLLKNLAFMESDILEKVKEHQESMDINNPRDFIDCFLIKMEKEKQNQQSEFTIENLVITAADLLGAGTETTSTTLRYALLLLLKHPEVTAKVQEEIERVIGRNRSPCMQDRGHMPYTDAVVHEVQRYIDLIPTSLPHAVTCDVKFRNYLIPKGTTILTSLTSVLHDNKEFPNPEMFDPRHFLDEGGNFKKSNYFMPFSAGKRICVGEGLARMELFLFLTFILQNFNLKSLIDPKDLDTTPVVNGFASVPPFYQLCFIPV
T4 sequence (P11712 whole entry): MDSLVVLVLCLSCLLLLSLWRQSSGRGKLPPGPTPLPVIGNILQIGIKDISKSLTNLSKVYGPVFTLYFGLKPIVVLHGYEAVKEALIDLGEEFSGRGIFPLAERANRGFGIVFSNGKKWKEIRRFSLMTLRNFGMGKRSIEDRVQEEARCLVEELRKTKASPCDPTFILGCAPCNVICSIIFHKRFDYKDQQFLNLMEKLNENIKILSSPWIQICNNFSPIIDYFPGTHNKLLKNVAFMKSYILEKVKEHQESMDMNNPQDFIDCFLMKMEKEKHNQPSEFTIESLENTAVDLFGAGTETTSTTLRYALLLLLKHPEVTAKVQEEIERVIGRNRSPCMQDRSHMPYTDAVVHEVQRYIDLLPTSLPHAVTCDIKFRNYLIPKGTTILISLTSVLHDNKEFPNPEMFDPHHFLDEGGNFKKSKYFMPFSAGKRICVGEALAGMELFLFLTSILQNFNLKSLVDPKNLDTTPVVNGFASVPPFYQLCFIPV
T5 sequence (P04049 whole entry): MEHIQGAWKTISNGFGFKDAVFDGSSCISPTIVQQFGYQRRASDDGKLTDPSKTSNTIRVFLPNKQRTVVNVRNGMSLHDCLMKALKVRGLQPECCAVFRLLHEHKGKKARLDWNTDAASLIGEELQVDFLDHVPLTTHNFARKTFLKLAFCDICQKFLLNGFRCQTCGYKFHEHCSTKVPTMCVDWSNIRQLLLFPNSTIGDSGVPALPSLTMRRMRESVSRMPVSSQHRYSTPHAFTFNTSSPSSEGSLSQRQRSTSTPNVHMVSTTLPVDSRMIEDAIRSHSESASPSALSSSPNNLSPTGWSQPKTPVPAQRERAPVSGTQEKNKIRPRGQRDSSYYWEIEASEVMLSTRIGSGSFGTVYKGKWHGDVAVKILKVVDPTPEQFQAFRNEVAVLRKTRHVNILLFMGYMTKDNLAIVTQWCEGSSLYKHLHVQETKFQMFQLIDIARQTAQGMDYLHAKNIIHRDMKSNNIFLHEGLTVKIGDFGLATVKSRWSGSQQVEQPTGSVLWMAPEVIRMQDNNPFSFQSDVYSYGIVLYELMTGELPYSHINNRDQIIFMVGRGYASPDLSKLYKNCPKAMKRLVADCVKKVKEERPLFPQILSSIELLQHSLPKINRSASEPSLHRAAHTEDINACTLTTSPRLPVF
T2 sequence (P15056 whole entry): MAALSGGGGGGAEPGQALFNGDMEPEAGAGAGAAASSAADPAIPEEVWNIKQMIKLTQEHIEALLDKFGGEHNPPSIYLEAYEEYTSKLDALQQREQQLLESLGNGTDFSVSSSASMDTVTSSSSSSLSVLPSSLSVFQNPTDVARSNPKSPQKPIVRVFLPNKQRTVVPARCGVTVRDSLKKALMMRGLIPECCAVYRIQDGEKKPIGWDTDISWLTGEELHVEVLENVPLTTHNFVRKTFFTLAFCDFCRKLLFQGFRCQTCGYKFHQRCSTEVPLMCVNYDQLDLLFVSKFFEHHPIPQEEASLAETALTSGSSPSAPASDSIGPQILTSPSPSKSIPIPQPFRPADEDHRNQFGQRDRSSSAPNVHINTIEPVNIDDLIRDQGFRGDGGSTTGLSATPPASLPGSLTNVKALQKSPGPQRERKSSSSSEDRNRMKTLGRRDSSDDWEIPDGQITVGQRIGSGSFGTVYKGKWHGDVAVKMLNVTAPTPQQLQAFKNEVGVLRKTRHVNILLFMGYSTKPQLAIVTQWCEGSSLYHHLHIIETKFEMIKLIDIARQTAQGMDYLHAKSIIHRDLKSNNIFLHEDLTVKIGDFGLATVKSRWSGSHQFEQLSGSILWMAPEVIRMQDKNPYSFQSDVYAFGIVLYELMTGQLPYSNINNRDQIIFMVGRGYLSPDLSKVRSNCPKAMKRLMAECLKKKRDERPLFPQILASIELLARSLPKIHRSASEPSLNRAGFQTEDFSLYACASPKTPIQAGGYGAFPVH
T7 sequence (P15056 whole entry V600E): as the sequence (P15056 whole entry) above, with V600E counted along it

In general, IC50 refers to the point on the concentration scale where inhibition reaches its midpoint. By pKa is commonly meant the pH at which an ionisable group is half protonated. As for `N#Cc1ccnc2[nH]cc(C(=O)c3c(F)ccc(NS(=O)(=O)c4ccc(C(F)(F)F)cc4)c3F)c12` [Compound P-0001, N-[3-(4-cyano-1H-pyrrolo[2,3-b]pyridine-3-carbonyl)-2,4-difluoro-phenyl]-4-trifluoromethyl-benzenesulfonamide], the IC50 at CYP2D6 was more than 10 µM; on Src, 1 to 10 µM; against TrkA, 1 to 10 µM; against B-Raf, less than 0.1 µM; on Hgk, more than 10 µM; at CYP2C19, more than 10 µM. The IC50 was more than 10 µM on CYP2C9; less than 0.1 µM on c-Raf-1; more than 10 µM against Kdr; more than 10 µM against Btk; 1 to 10 µM against Kit; more than 10 µM on CYP1A2. For the same molecule, the IC50 on B-Raf mutant V600E is less than 1 µM; against Fms it was more than 10 µM; on CYP3A4(BFC), more than 10 µM; on CYP3A4(BQ), more than 10 µM. Also, the “turbidity threshold (L, M, H)” value in data set [1] (setting [3]) is “L (low solubility if the threshold concentration is <31.3 μM)”; in [1] (setting [4]), “L (low solubility if the threshold concentration is <31.3 μM)”; in [1] (setting [5]) it was “L (low solubility if the threshold concentration is <31.3 μM)”; in data set [1] (pH 7.4 (Hepes Buffer)), “M (moderate solubility if the threshold concentration is 31.3 μM to 250 μM)”. In addition, the figures for the pKa in data set [2] (setting [6]) and in data set [2] (setting [7]) were 4 to 5 and approximately 7, respectively.
For `C#Cc1ccnc2[nH]cc(C(=O)c3c(F)ccc(NS(=O)(=O)c4ccc(C(F)(F)F)cc4)c3F)c12` [Compound P-0002, N-[3-(4-ethynyl-1H-pyrrolo[2,3-b]pyridine-3-carbonyl)-2,4-difluoro-phenyl]-4-trifluoromethyl-benzenesulfonamide], the IC50 is more than 10 µM at CYP2D6; approximately 1 µM against Src; more than 10 µM against TrkA; less than 0.1 µM against B-Raf; more than 10 µM on CYP2C19; less than 5 µM at CYP2C9. The IC50 at c-Raf-1 is less than 0.1 µM; at Kdr, approximately 1 µM; against Btk it was more than 10 µM; on CYP1A2, more than 10 µM; on B-Raf mutant V600E, less than 1 µM; at Fms it was more than 10 µM. The IC50 was 5 to 10 µM at CYP3A4(BFC) and more than 10 µM on CYP3A4(BQ). For the same molecule, the “turbidity threshold (L, M, H)” value in data set [1] (setting [3]) is “L (low solubility if the threshold concentration is <31.3 μM)”; in data set [1] (setting [4]) it was “L (low solubility if the threshold concentration is <31.3 μM)”; in data set [1] (setting [5]), “M (moderate solubility if the threshold concentration is 31.3 μM to 250 μM)”; in data set [1] (pH 7.4 (Hepes Buffer)), “M (moderate solubility if the threshold concentration is 31.3 μM to 250 μM)”. Moreover, the figures for the pKa in data set [2] (setting [6]) and in [2] (setting [7]) were 4 to 5 and approximately 7, respectively.

The record behind these values is patent US8129404B2, “Compounds and uses thereof” (Plexxikon Inc., priority 2009, dated 2012).
